Test results reported in patent US7592353B2, “Substituted 3-amino-thieno[2,3-b]pyridine-2-carboxylic acid amide compounds and processes for preparing and their uses” (Boehringer Ingelheim International GmbH, priority 2006, dated 2009).

Assays:
[1] = target: T1, human IKKβ (Homo sapiens, UniProt O14920); assay: Molecular assay IKKb: phosphorylation of IκBα substrate by IKKβ; format: biochemical
T1 construct: FLAG (N)
T1 sequence (O14920 1-756): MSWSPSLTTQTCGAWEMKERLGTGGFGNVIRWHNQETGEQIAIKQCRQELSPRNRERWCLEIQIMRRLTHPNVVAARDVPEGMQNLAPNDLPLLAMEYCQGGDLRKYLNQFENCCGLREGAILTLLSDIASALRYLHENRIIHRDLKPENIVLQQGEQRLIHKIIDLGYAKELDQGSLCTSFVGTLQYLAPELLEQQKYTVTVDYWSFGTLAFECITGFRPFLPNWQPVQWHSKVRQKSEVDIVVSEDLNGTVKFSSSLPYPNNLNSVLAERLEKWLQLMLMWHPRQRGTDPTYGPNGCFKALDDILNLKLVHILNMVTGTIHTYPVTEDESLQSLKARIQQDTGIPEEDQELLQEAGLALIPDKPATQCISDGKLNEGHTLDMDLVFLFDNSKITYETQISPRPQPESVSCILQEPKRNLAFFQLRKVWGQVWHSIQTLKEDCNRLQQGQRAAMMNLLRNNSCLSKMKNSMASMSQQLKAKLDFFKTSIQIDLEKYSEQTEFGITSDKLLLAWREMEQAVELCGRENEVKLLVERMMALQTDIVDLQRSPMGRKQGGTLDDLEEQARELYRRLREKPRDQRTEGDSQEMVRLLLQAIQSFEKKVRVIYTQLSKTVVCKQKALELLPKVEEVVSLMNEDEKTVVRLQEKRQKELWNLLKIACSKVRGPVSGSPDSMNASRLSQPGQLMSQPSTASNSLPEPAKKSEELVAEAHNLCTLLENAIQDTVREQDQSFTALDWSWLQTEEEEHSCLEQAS
Description: The inhibition of IKKα and IKKβ by the compounds of the present invention can be determined with the following assay that measures the phosphorylation of the IκBα substrate by the respective kinases. The enzymes used in the assay were N-terminally flag-tagged versions of the human IKKβ or IKKα and the substrate was a GST fusion protein with IκBα (amino acids 1-54).
The reaction mixtures (60 μl) contained 20 mM HEPES pH 7.5, 10 mM MgCl2, 2 mM MnCl2, 100 mM NaCl, 100 μM Na3VO4, 20 mM β-glycerophosphate, 1 mM DTT, 2% DMSO, 250 nM ATP, 0.4 nM [^33P]ATP (specific activity, 3000 Ci/mmol), IκBα substrate, IKK enzyme and test compound. The reaction mixtures contained either 3.6 μg/ml IKKα and 245 μg/ml IκBα or 0.9 μg/ml IKKβ and 53 μg/ml IκBα.
Reactions were initiated by adding a solution of IκBα substrate and ATP to polypropylene plates containing IKK enzyme that was pre-incubated for 5 minutes with test compound. Then the reaction mixtures were incubated for 1 hour at 25° C., placed on ice and quenched by the addition of 150 μl 10% trichloroacetic acid and 5% disodium pyrophosphate. After mixing, the entire contents of the quenched reaction mixtures were transferred to a pre-wetted Packard UniFilter filtration plate, aspirated and washed 6 times with 250 μl of ddH2O using the Packard Filtermate Harvester. Filtration plates were then air dried, supplemented with 40 μl of Microscint 20 scintillation fluid and the ^33P-labeled reaction products were quantified using the Packard TopCount scintillation counter.
Compounds were tested in three-fold serial dilutions and inhibitor concentrations to achieve 50% inhibition of enzyme activity (i.e., IC50) were derived from dose-response curves using SAS software (SAS Institute, Cary N.C.). A non-linear regression analysis based on the Hill equation was applied to the percent inhibition versus concentration data. In all cases, compound concentrations were verified by HPLC.

[2] = tested on: ICAM-1 Expression on HeLa Cells; assay: Cell assay HeLa: ELISA of TNFα-stimulated ICAM-1 expression on HeLa cells; format: cell-based; details: for IC50: Homo sapiens, HeLa cells, TNFα stimulation, ICAM-1 expression; for cellular potency relative to the —CF3 group of compound 101: comparison in words, Table II
Description: HeLa cells are seeded on 96 well tissue culture treated plates (Costar) in complete medium comprised of 10% decomplemented fetal bovine serum in RPMI1640 with gentamycin and L-glutamine and grown overnight to confluence. The following day, the media is changed and the wells are treated with test compounds. 10 mM DMSO stock solutions of compounds are serially diluted with 0.1% DMSO (final concentration)-screening media to 5 final concentrations (starting at 10 μM). Compounds are pre-incubated with cells for 30 min followed by stimulation with TNFα (R&D Systems) for 5-6 hr. The adherent cells are then assayed for expression of intercellular adhesion molecule-1 (ICAM-1). Monolayers are washed three times with D-PBS (Gibco) and fixed for 10 min at room temperature with 1% paraformaldehyde (Polysciences, Inc) diluted in D-PBS. After washing to remove fixative, the monolayers are blocked with 2% BSA-D-PBS overnight at 4° C. 100 μL of anti-ICAM-1 mAB RR1-HRP (diluted 1:5000 in 2% BSA-DPBS; Zymed custom conjugate of BIPI mAB) is added for 1 hr at 37° C. Wells are washed three times with D-PBS. 100 μL of ABTS substrate diluted in substrate buffer (Zymed) is added to each well. Optical absorbance is measured at 405 nm in a Thermomax microplate reader ([…]). Data is plotted as percent of control and IC50s are determined using xlfit 4 model # 201.

[3] = Rat oral exposure (plasma exposure upon oral administration); format: in vivo; details: for concentration at 2 h / concentration at 6 h / concentration at 10 h: plasma, rat, oral, 10 mg/kg; for concentration at 2 h: read-out: Rat oral exposure (μM) @ 10 mg/kg dose 2h; for concentration at 6 h: read-out: Rat oral exposure (μM) @ 10 mg/kg dose 6h; for concentration at 10 h: read-out: Rat oral exposure (μM) @ 10 mg/kg dose 10h
[4] = tested on: established type II collagen arthritis in rats; assay: Rat CIA model (7 day rat established type II collagen arthritis); format: in vivo
Excerpt: Effects of Compounds in 7 Day Rat Established Type II Collagen Arthritis
Purpose: To determine the dose responsive efficacy of compounds administered by oral gavage dosing bid in inhibiting the inflammation, cartilage destruction and bone resorption of established type II collagen arthritis in rats. The terminal pharmacokinetic component is included.
Animals: 36 (Order 42) Female Lewis rats (Harlan, 1173000), weighing 125-150 g on arrival. Extras are used because animals with arthritis are selected and there is not 100% incidence of disease in this model in the short time frame for enrollment (inject 42 with collagen to get […] solid responders on days 10, 11 for 4 groups of 8. Four rats are used to serve as normal controls.
Materials: Agents or drugs in vehicle (Cremaphor), Type II collagen, Freund's incomplete adjuvant.
General Study Design: Animals (8/group for arthritis, 4/group for normal control), housed 4/cage, are acclimated for 4-8 days.
Acclimated animals are anesthetized with Isoflurane and given collagen injections (day 0). […]
Statistical analysis of body/paw weights and paw AUC and histopathology parameters are evaluated using a one-way analysis of variance (ANOVA). […]
Percent inhibition of paw weight and AUC is calculated using the following formula: % Inhibition=A−B/A×100 A=Mean Disease Control−Mean Normal B=Mean Treated−Mean Normal

IC50 [1] [nM]	IC50 [2] [nM]	concentration at 2 h [3] [µM]	concentration at 6 h [3] [µM]	concentration at 10 h [3] [µM]	Structure (SMILES)	cellular potency relative to the —CF3 group of compound 101 [2]	level of sustained plasma exposure upon oral administration to rat, versus Compound 100 ([3]; comparison in words, Table II)	oral activity in a rat model of collagen induced arthritis ([4]; comparison in words, Table III)	Inhibition of paw weight increase ([4]; rat CIA, oral, 10 mg/kg BID) [%]
78	720	0.21	0.12	0.08	CCCc1cc(N2CCC(S(C)(=O)=O)CC2)nc2sc(C(N)=O)c(N)c12 [Compound 100, reference compound]	improved cellular potency			
120	3200				CS(=O)(=O)C1CCN(c2cc(C(F)(F)F)c3c(N)c(C(N)=O)sc3n2)CC1 [Compound 101]				
26	700	1.59	0.78	0.65	CCC(F)(F)c1cc(N2CCC(S(C)(=O)=O)CC2)nc2sc(C(N)=O)c(N)c12 [Compound 115, 3-Amino-4-(1,1-difluoro-propyl)-6-(4-methanesulfonyl-piperidin-1-yl)-thieno[2,3-b]pyridine-2-carboxylic acid amide]	improved cellular potency	improved level of sustained plasma exposure	superior oral activity	44
